# Assay results from patent publication US12551536B2, “Semaglutide in medical therapy” (Novo Nordisk A/S, priority 2017, dated 2026).
# Experiments:
# Assay type in all cases: in vivo, human
# [1] = 52-week clinical trial in obese subjects without diabetes mellitus: gastrointestinal adverse events; conditions: for Gastrointestinal adverse events, Observed data, % (percentage of subjects with at least one event) / Nausea, % (percentage of subjects experiencing at least one event) / Nausea, E (number of events) / Nausea, Ne (number of subjects experiencing at least one event) / Gastrointestinal adverse events, Observed data, Ne (number of subjects experiencing at least one event): on-treatment; for Nausea, % (percentage of subjects experiencing at least one event) / Nausea, E (number of events) / Nausea, Ne (number of subjects experiencing at least one event): observed data
# Description: This trial was designed as a 52-week, randomised, double-blind, placebo-controlled, sixteen-armed, parallel group, multi-centre, multinational trial comparing once-daily subcutaneous administration of semaglutide in five different doses (ranging from 0.05 mg/day to 0.4 mg/day) with placebo in obese subjects without diabetes mellitus. […] The trial was double-blinded between active and placebo treatment. To ensure a sufficiently large sample of men, no more than 70% of the trial population was allowed to be women and the randomisation was stratified according to sex. Subjects were randomised in a balanced manner (6:1 active:placebo).
# The primary endpoint was relative change from baseline in body weight (%) at 52 weeks. Key secondary endpoints included proportion of subjects with weight loss of ≥5% or ≥10% of baseline body weight at 52 weeks as well as change in body weight from baseline to 52 weeks. Supportive secondary safety endpoints also included gastrointestinal (GI) adverse events (i.e. nausea, vomiting, diarrhoea and constipation). During each site visit the individual subject was asked via open questions if they had experienced any medical problems since the last visit. All medical problems either observed by the site staff or the subject was reported as an adverse event and evaluated for severity and causality by the investigator. For this trial the subjects had site visits every 2 weeks for the first 20 weeks of the trial and afterwards site visits was performed every 4 weeks.
# Subjects in all treatment arms including placebo received nutritional counselling and a calorie-reduced diet by a dietician or equivalent qualified delegate as well as physical activity counselling by a qualified person on a monthly basis beginning at the randomisation visit. The trial population consisted of a total of 957 subjects were randomised. A total of 777 subjects (81.2%) completed 52 weeks of treatment; 180 (18.8%) discontinued treatment prematurely with no obvious dose-dependent trend. Key inclusion criteria for this trial were: Male or female, age ≥18 years at the time of signing inform consent; body mass index (BMI)≥30.0 kg/m2 at the screening visit; and at least one unsuccessful weight loss attempt per investigator judgement. Key exclusion criteria for this trial were: A HbA1c≥6.5% at screening or diagnosed with type 1 or type 2 diabetes mellitus; Treatment with glucose lowering agent(s) within 90 days before screening; Screening calcitonin ≥50 ng/L (pg/mL); Personal or family history of medullary thyroid carcinoma or multiple endocrine neoplasia syndrome type 2; History of pancreatitis (acute or chronic); Obesity induced by endocrine disorders (e.g. Cushing Syndrome); Treatment with any medication within 90 days before screening that based on investigator's judgement may cause significant weight change; Previous surgical treatment for obesity (liposuction and/or abdominoplasty performed >1 year before screening is allowed); History of major depressive disorder within 2 years before randomisation; Any lifetime history of a suicidal attempt; and Female who is pregnant, breast-feeding or intends to become pregnant or is of childbearing potential and not using an adequate contraceptive method (adequate contraceptive measures as required by local regulation or practice).
# [2] = 26-week clinical trial in adult patients with T2D: gastrointestinal adverse events incl. nausea; conditions: on-treatment
# Description: (§1) A 26-week, randomized, double-blind clinical trial was carried out with adult patients with T2D, HbA1c 7.0-10.0% (53-86 mmol/mol), and body mass index 24.0-40.0 kg/m^2 who were treated with diet and exercise±metformin. […] The primary endpoint was change in HbA1c from baseline to week 26. Key exclusion criteria were a history of chronic or idiopathic acute pancreatitis and moderate-to-severe renal impairment (estimated glomerular filtration rate <60 mL/min/1.73 m^2).
# Trial drug administration: Following a 2-week screening period, patients received trial medication for 26 weeks, followed by a 7-week follow-up period. […] The trial was double blinded within (but not between) each dose level of semaglutide, liraglutide and placebo, as treatment was volume matched.
# [3] = tested on: HbA1c; assay: 26-week clinical trial in adult patients with T2D: change in HbA1c; conditions: baseline to week 26
# Description: as §1
# Trial drug administration: Following a 2-week screening period, patients received trial medication for 26 weeks, followed by a 7-week follow-up period.
# [4] = Sema 0.05 mg once daily s.c., N 103
# [5] = Sema 0.1 mg once daily s.c., N 102
# [6] = Sema 0.2 mg once daily s.c., N 103
# [7] = Sema 0.3 mg once daily s.c., N 103
# [8] = Sema 0.4 mg once daily s.c., N 102
# [9] = Sema 0.05 mg once daily s.c., N 64
# [10] = Sema 0.1 mg once daily s.c., N 63
# [11] = Sema 0.2 mg once daily s.c., N 65
# [12] = Sema 0.3 mg once daily s.c., N 63
substance,measurement,setting,value
"N^6.26-{18-[N-(17-carboxyheptadecanoyl)-L-γ-glutamyl]-10-oxo-3,6,12,15-tetraoxa-9,18-diazaoctadecanoyl}-[8-(2-amino-2-propanoic acid),34-L-arginine]human glucagon-like peptide 1(7-37) [Sema]",Corresponding Sema dose (dosage of semaglutide providing the same level of gastrointestinal adverse events as 3.0 mg liraglutide),"[1]; Lira 3.0 mg, Emax model, Estimate [95% CI]",0.28 mg
same,"Gastrointestinal adverse events, Observed data, % (percentage of subjects with at least one event)",[1]; Sema 0.05 mg once daily s.c.,62.1%
same,"Nausea, % (percentage of subjects experiencing at least one event)",[1]; Sema 0.05 mg once daily s.c.,31.1%
same,"Nausea, E (number of events)",[1]; Sema 0.05 mg once daily s.c.,41
same,"Nausea, Ne (number of subjects experiencing at least one event)",[1]; [4],32
same,"Gastrointestinal adverse events, Observed data, Ne (number of subjects experiencing at least one event)",[1]; [4],64
same,"Gastrointestinal adverse events, Observed data, % (percentage of subjects with at least one event)",[1]; Sema 0.1 mg once daily s.c.,70.6%
same,"Nausea, % (percentage of subjects experiencing at least one event)",[1]; Sema 0.1 mg once daily s.c.,41.2%
same,"Nausea, E (number of events)",[1]; Sema 0.1 mg once daily s.c.,80
same,"Nausea, Ne (number of subjects experiencing at least one event)",[1]; [5],42
same,"Gastrointestinal adverse events, Observed data, Ne (number of subjects experiencing at least one event)",[1]; [5],72
same,"Gastrointestinal adverse events, Observed data, % (percentage of subjects with at least one event)",[1]; Sema 0.2 mg once daily s.c.,69.9%
same,"Nausea, % (percentage of subjects experiencing at least one event)",[1]; Sema 0.2 mg once daily s.c.,43.7%
same,"Nausea, E (number of events)",[1]; Sema 0.2 mg once daily s.c.,74
same,"Nausea, Ne (number of subjects experiencing at least one event)",[1]; [6],45
same,"Gastrointestinal adverse events, Observed data, Ne (number of subjects experiencing at least one event)",[1]; [6],72
same,"Gastrointestinal adverse events, Observed data, % (percentage of subjects with at least one event)",[1]; Sema 0.3 mg once daily s.c.,69.9%
same,"Nausea, % (percentage of subjects experiencing at least one event)",[1]; Sema 0.3 mg once daily s.c.,41.7%
same,"Nausea, E (number of events)",[1]; Sema 0.3 mg once daily s.c.,69
same,"Nausea, Ne (number of subjects experiencing at least one event)",[1]; [7],43
same,"Gastrointestinal adverse events, Observed data, Ne (number of subjects experiencing at least one event)",[1]; [7],72
same,"Gastrointestinal adverse events, Observed data, % (percentage of subjects with at least one event)",[1]; Sema 0.4 mg once daily s.c.,82.4%
same,"Nausea, % (percentage of subjects experiencing at least one event)",[1]; Sema 0.4 mg once daily s.c.,48.0%
same,"Nausea, E (number of events)",[1]; Sema 0.4 mg once daily s.c.,94
same,"Nausea, Ne (number of subjects experiencing at least one event)",[1]; [8],49
same,"Gastrointestinal adverse events, Observed data, Ne (number of subjects experiencing at least one event)",[1]; [8],84
same,"Gastrointestinal adverse events, % (percentage of patients experiencing at least one event)",[2]; Sema 0.05 mg once daily s.c.,32.8%
same,"Gastrointestinal adverse events, E (number of events)",[2]; Sema 0.05 mg once daily s.c.,61
same,"Nausea, % (percentage of patients experiencing at least one event)",[2]; Sema 0.05 mg once daily s.c.,17.2%
same,"Nausea, E (number of events)",[2]; Sema 0.05 mg once daily s.c.,16
same,"Gastrointestinal adverse events, Ne (number of patients experiencing at least one event)",[2]; [9],21
same,"Nausea, Ne (number of patients experiencing at least one event)",[2]; [9],11
same,"Gastrointestinal adverse events, % (percentage of patients experiencing at least one event)",[2]; Sema 0.1 mg once daily s.c.,44.4%
same,"Gastrointestinal adverse events, E (number of events)",[2]; Sema 0.1 mg once daily s.c.,90
same,"Nausea, % (percentage of patients experiencing at least one event)",[2]; Sema 0.1 mg once daily s.c.,19.0%
same,"Nausea, E (number of events)",[2]; Sema 0.1 mg once daily s.c.,20
same,"Gastrointestinal adverse events, Ne (number of patients experiencing at least one event)",[2]; [10],28
same,"Nausea, Ne (number of patients experiencing at least one event)",[2]; [10],12
same,"Gastrointestinal adverse events, % (percentage of patients experiencing at least one event)",[2]; Sema 0.2 mg once daily s.c.,46.2%
same,"Gastrointestinal adverse events, E (number of events)",[2]; Sema 0.2 mg once daily s.c.,106
same,"Nausea, % (percentage of patients experiencing at least one event)",[2]; Sema 0.2 mg once daily s.c.,21.5%
same,"Nausea, E (number of events)",[2]; Sema 0.2 mg once daily s.c.,22
same,"Gastrointestinal adverse events, Ne (number of patients experiencing at least one event)",[2]; [11],30
same,"Nausea, Ne (number of patients experiencing at least one event)",[2]; [11],14
same,"Gastrointestinal adverse events, % (percentage of patients experiencing at least one event)",[2]; Sema 0.3 mg once daily s.c.,54.0%
same,"Gastrointestinal adverse events, E (number of events)",[2]; Sema 0.3 mg once daily s.c.,101
same,"Nausea, % (percentage of patients experiencing at least one event)",[2]; Sema 0.3 mg once daily s.c.,25.4%
same,"Nausea, E (number of events)",[2]; Sema 0.3 mg once daily s.c.,22
same,"Gastrointestinal adverse events, Ne (number of patients experiencing at least one event)",[2]; [12],34
same,"Nausea, Ne (number of patients experiencing at least one event)",[2]; [12],16
same,Mean Change in HbA1c % (SD),[3]; Sema 0.05 mg once daily s.c.,−0.97 (0.85) %
same,Mean Change in HbA1c % (SD),[3]; Sema 0.1 mg once daily s.c.,−1.30 (1.03) %
same,Mean Change in HbA1c % (SD),[3]; Sema 0.2 mg once daily s.c.,−1.65 (0.79) %
same,Mean Change in HbA1c % (SD),[3]; Sema 0.3 mg once daily s.c.,−1.96 (0.95) %
